Measurements published in the NIST ThermoML archive (doi:10.1016/j.tca.2009.10.017).
Several values for one entry are separate records, joined by “and”; a condition that tells them apart may be missing. Equal entries are not always repeated.

Clc1c(Cl)c(Cl)c(Cl)c(Cl)c1Cl [hexachlorobenzene]
vapor or sublimation pressure, Crystal
Conditions	isothermal thermogravimetry	non-isothermal thermogravimetry
359.7 K	0.002 kPa	–
360.2 K	0.003 kPa	–
361.6 K	0.003 kPa	–
362.5 K	0.003 kPa	–
363.6 K	0.004 kPa	–
364.4 K	0.003 kPa	–
364.5 K	0.004 kPa	–
365.4 K	0.004 kPa	–
365.5 K	0.004 kPa	–
367.4 K	0.005 kPa	–
368 K	0.005 kPa	–
369.5 K	0.005 kPa	–
370.3 K	0.005 kPa	–
371 K	0.006 kPa	–
371.5 K	0.006 kPa and 0.005 kPa	–
374.1 K	0.007 kPa	–
377.1 K	0.008 kPa	–
378.1 K	0.008 kPa	–
378.2 K	0.008 kPa	–
381.4 K	0.012 kPa and 0.011 kPa	–
382.3 K	0.012 kPa	–
382.4 K	0.011 kPa	–
383.1 K	0.012 kPa	–
384.4 K	0.014 kPa	–
385.8 K	0.015 kPa	–
386.2 K	0.015 kPa	–
386.6 K	0.013 kPa	–
388.5 K	0.016 kPa	–
392.7 K	0.021 kPa	–
393.3 K	0.024 kPa	–
396.3 K	0.026 kPa	–
396.7 K	0.026 kPa	–
397.5 K	–	0.038 kPa
399.6 K	0.031 kPa	–
400.4 K	–	0.048 kPa
400.6 K	0.038 kPa	–
400.8 K	–	0.041 kPa
401.2 K	–	0.048 kPa
402 K	–	0.047 kPa
402.8 K	–	0.057 kPa
403.2 K	0.044 kPa	–
403.6 K	–	0.05 kPa
404.1 K	–	0.061 kPa
404.4 K	0.043 kPa	–
404.5 K	–	0.051 kPa
404.9 K	–	0.058 kPa
405.3 K	–	0.053 kPa
405.8 K	–	0.063 kPa
406.1 K	–	0.052 kPa
406.5 K	–	0.06 kPa
407 K	–	0.064 kPa
407.4 K	–	0.061 kPa
407.8 K	–	0.064 kPa
408.2 K	–	0.07 kPa
408.3 K	0.057 kPa	–
408.6 K	–	0.066 kPa
409 K	–	0.078 kPa
409.4 K	–	0.071 kPa
409.8 K	–	0.079 kPa
410.2 K	–	0.076 kPa
410.6 K	–	0.073 kPa
411 K	–	0.074 kPa
411.4 K	–	0.089 kPa
411.9 K	–	0.069 kPa
412.3 K	0.066 kPa	0.078 kPa
412.7 K	–	0.084 kPa
413.2 K	–	0.083 kPa
413.6 K	–	0.085 kPa
414 K	–	0.088 kPa
414.4 K	–	0.093 kPa
414.9 K	–	0.093 kPa
415.3 K	–	0.089 kPa
415.7 K	–	0.101 kPa
416.1 K	–	0.094 kPa
416.5 K	–	0.101 kPa
417 K	–	0.101 kPa
417.4 K	–	0.11 kPa
417.8 K	–	0.118 kPa
418.2 K	–	0.112 kPa
418.6 K	–	0.113 kPa
419.1 K	–	0.129 kPa
419.5 K	–	0.131 kPa
419.9 K	–	0.118 kPa
420.3 K	–	0.134 kPa
420.7 K	–	0.134 kPa
421.1 K	–	0.128 kPa
421.5 K	–	0.131 kPa
421.9 K	–	0.144 kPa
422.3 K	–	0.144 kPa
422.8 K	–	0.143 kPa
423.2 K	–	0.159 kPa
423.6 K	–	0.146 kPa
424 K	–	0.149 kPa
424.4 K	–	0.152 kPa
424.8 K	–	0.169 kPa
425.7 K	–	0.173 kPa

Cl[C@H]1[C@H](Cl)[C@@H](Cl)[C@@H](Cl)[C@H](Cl)[C@H]1Cl [γ-1,2,3,4,5,6-hexachlorocyclohexane]
vapor or sublimation pressure
Conditions	Crystal	Liquid
347.1 K, isothermal thermogravimetry	0.0017 kPa	–
349.8 K, isothermal thermogravimetry	0.0019 kPa	–
349.9 K, isothermal thermogravimetry	0.002 kPa	–
351.9 K, isothermal thermogravimetry	0.0025 kPa	–
352 K, isothermal thermogravimetry	0.0027 kPa	–
354.4 K, isothermal thermogravimetry	0.0034 kPa	–
355 K, isothermal thermogravimetry	0.0031 kPa	–
356.2 K, isothermal thermogravimetry	0.0039 kPa	–
356.4 K, isothermal thermogravimetry	0.0042 kPa	–
357.8 K, isothermal thermogravimetry	0.004 kPa	–
359.3 K, isothermal thermogravimetry	0.005 kPa	–
361.5 K, isothermal thermogravimetry	0.0052 kPa	–
363.2 K, isothermal thermogravimetry	0.006 kPa	–
364 K, isothermal thermogravimetry	0.0058 kPa	–
364.9 K, isothermal thermogravimetry	0.0082 kPa	–
367.2 K, isothermal thermogravimetry	0.0075 kPa	–
368.1 K, isothermal thermogravimetry	0.0104 kPa	–
371.1 K, isothermal thermogravimetry	0.0122 kPa	–
372.9 K, isothermal thermogravimetry	0.0122 kPa	–
374.3 K, isothermal thermogravimetry	0.0169 kPa	–
376.2 K, isothermal thermogravimetry	0.017 kPa	–
377.4 K, isothermal thermogravimetry	0.0225 kPa	–
377.5 K, non-isothermal thermogravimetry	0.024 kPa	0.024 kPa
378.3 K, non-isothermal thermogravimetry	0.026 kPa	0.026 kPa
379.1 K, non-isothermal thermogravimetry	0.027 kPa	0.027 kPa
379.3 K, isothermal thermogravimetry	0.0228 kPa	–
379.9 K, non-isothermal thermogravimetry	0.028 kPa	0.028 kPa
380.7 K, isothermal thermogravimetry	0.0294 kPa	–
380.7 K, non-isothermal thermogravimetry	0.03 kPa	0.03 kPa
381.5 K, non-isothermal thermogravimetry	0.032 kPa	0.032 kPa
381.8 K, isothermal thermogravimetry	0.0277 kPa	–
382.4 K, non-isothermal thermogravimetry	0.034 kPa	0.034 kPa
383.2 K, non-isothermal thermogravimetry	0.037 kPa	0.037 kPa
384 K, isothermal thermogravimetry	0.0365 kPa	–
384 K, non-isothermal thermogravimetry	0.038 kPa	0.038 kPa
384.8 K, non-isothermal thermogravimetry	0.041 kPa	0.041 kPa
386.4 K, non-isothermal thermogravimetry	–	0.044 kPa
387 K, non-isothermal thermogravimetry	–	0.049 kPa
387.4 K, isothermal thermogravimetry	–	0.045 kPa
387.6 K, non-isothermal thermogravimetry	–	0.044 kPa
387.9 K, non-isothermal thermogravimetry	–	0.046 kPa
388.2 K, non-isothermal thermogravimetry	–	0.044 kPa
388.6 K, non-isothermal thermogravimetry	–	0.043 kPa
389.2 K, isothermal thermogravimetry	–	0.049 kPa
389.9 K, isothermal thermogravimetry	–	0.055 kPa
390.5 K, isothermal thermogravimetry	–	0.053 kPa
390.8 K, non-isothermal thermogravimetry	–	0.051 kPa
392.1 K, isothermal thermogravimetry	–	0.06 kPa
392.1 K, non-isothermal thermogravimetry	–	0.065 kPa
393.2 K, non-isothermal thermogravimetry	–	0.06 kPa
393.5 K, isothermal thermogravimetry	–	0.07 kPa
393.6 K, isothermal thermogravimetry	–	0.065 kPa
394.1 K, non-isothermal thermogravimetry	–	0.067 kPa
395 K, non-isothermal thermogravimetry	–	0.07 kPa
395.9 K, non-isothermal thermogravimetry	–	0.079 kPa
396.6 K, isothermal thermogravimetry	–	0.08 kPa
396.7 K, non-isothermal thermogravimetry	–	0.085 kPa
397.6 K, non-isothermal thermogravimetry	–	0.074 kPa
398.5 K, non-isothermal thermogravimetry	–	0.074 kPa
398.7 K, isothermal thermogravimetry	–	0.088 kPa
398.9 K, isothermal thermogravimetry	–	0.086 kPa
399 K, isothermal thermogravimetry	–	0.093 kPa
399.9 K, isothermal thermogravimetry	–	0.093 kPa
400.2 K, non-isothermal thermogravimetry	–	0.088 kPa
400.3 K, isothermal thermogravimetry	–	0.095 kPa
401 K, non-isothermal thermogravimetry	–	0.1 kPa
401.7 K, isothermal thermogravimetry	–	0.103 kPa
401.9 K, non-isothermal thermogravimetry	–	0.109 kPa
402 K, non-isothermal thermogravimetry	–	0.095 kPa
402.8 K, non-isothermal thermogravimetry	–	0.106 kPa
403.6 K, non-isothermal thermogravimetry	–	0.104 kPa
403.7 K, isothermal thermogravimetry	–	0.114 kPa and 0.111 kPa
404.4 K, non-isothermal thermogravimetry	–	0.125 kPa
405.3 K, non-isothermal thermogravimetry	–	0.131 kPa
406.1 K, non-isothermal thermogravimetry	–	0.139 kPa
406.5 K, isothermal thermogravimetry	–	0.122 kPa
406.9 K, isothermal thermogravimetry	–	0.133 kPa
406.9 K, non-isothermal thermogravimetry	–	0.119 kPa
407.7 K, non-isothermal thermogravimetry	–	0.153 kPa
408.5 K, non-isothermal thermogravimetry	–	0.142 kPa
409.3 K, non-isothermal thermogravimetry	–	0.158 kPa
410.2 K, non-isothermal thermogravimetry	–	0.148 kPa
411 K, non-isothermal thermogravimetry	–	0.174 kPa
411.8 K, non-isothermal thermogravimetry	–	0.168 kPa
412.6 K, non-isothermal thermogravimetry	–	0.177 kPa
413.4 K, non-isothermal thermogravimetry	–	0.174 kPa
414.3 K, non-isothermal thermogravimetry	–	0.192 kPa
415.1 K, non-isothermal thermogravimetry	–	0.202 kPa
415.9 K, non-isothermal thermogravimetry	–	0.195 kPa
416.8 K, non-isothermal thermogravimetry	–	0.211 kPa
417.6 K, non-isothermal thermogravimetry	–	0.229 kPa
418.4 K, non-isothermal thermogravimetry	–	0.248 kPa
419.3 K, non-isothermal thermogravimetry	–	0.261 kPa
420.1 K, non-isothermal thermogravimetry	–	0.257 kPa
421 K, non-isothermal thermogravimetry	–	0.254 kPa
421.8 K, non-isothermal thermogravimetry	–	0.267 kPa
422.7 K, non-isothermal thermogravimetry	–	0.286 kPa
423.6 K, non-isothermal thermogravimetry	–	0.306 kPa
424.5 K, non-isothermal thermogravimetry	–	0.301 kPa
425.4 K, non-isothermal thermogravimetry	–	0.347 kPa
426.4 K, non-isothermal thermogravimetry	–	0.366 kPa
426.8 K, non-isothermal thermogravimetry	–	0.371 kPa
427.5 K, non-isothermal thermogravimetry	–	0.405 kPa
428.6 K, non-isothermal thermogravimetry	–	0.367 kPa
428.7 K, non-isothermal thermogravimetry	–	0.416 kPa
